# From patent US5631230A, “Receptor selective analogues of cholecystokinin-8” (priority 1994, dated 1997)
# Non-standard residues stand in square brackets, D forms with d. Residues, ends and D or L forms follow the SMILES beside them. *: point of attachment. sY = N[C@@H](Cc1ccc(OS(=O)(=O)O)cc1)C(=O)O; X1 = O=C(O)C[C@H](NS(=O)(=O)O)C(=O)*; NMeNle = CCCC[C@H](NC)C(=O)O; Nle = CCCC[C@H](N)C(=O)O
# How the values were obtained:
# [1] = target: T1, [^125 I] CCK-8 binding sites (CCK receptor), Rat Pancreas (Rattus norvegicus, UniProt P30551); test: Inhibition of [125I] CCK-8 binding, rat pancreas
# T1 construct: from tissue; host or cells: rat pancreas
# T1 sequence (P30551 1-444): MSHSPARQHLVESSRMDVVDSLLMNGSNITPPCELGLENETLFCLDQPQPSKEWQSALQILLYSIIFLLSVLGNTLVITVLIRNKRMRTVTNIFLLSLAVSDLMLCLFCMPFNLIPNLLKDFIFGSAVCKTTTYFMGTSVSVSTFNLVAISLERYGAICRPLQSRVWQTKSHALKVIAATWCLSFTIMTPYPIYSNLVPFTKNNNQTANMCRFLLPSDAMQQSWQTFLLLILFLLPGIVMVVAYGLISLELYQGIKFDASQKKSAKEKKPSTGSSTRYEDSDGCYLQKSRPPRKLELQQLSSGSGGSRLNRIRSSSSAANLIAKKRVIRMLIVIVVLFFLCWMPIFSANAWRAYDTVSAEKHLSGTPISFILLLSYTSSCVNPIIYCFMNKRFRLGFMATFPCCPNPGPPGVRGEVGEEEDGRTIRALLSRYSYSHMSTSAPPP
# [2] = target: T2, [^125 I] CCK-8 binding sites (CCK receptor), Guinea Pig Pancreas (Cavia porcellus, UniProt Q63931); test: Inhibition of [125I] CCK-8 binding, guinea pig pancreas; details: read-out: Guinea Pig Pancreas IV50
# T2 construct: from tissue; host or cells: guinea pig pancreas
# T2 sequence (Q63931 1-430): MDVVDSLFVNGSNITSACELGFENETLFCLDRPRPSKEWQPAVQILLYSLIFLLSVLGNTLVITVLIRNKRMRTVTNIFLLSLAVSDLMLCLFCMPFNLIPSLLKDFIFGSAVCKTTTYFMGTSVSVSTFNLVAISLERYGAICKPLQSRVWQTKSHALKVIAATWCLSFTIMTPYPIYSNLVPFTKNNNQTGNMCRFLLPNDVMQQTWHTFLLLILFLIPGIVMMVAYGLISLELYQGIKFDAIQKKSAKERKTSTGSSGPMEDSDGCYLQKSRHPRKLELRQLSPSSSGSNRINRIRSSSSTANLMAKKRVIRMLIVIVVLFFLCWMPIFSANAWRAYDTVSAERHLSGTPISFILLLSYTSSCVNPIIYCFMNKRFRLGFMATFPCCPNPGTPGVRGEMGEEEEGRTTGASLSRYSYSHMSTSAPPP
# [3] = target: T3, [^125 I] CCK-8 binding sites (CCK receptor), Rat Brain (Rattus norvegicus, UniProt P30553); test: Inhibition of [125I] CCK-8 binding, rat brain; details: for Ratio Pancreas/Brain Rat: IC50 pancreas / IC50 brain
# T3 construct: from tissue; host or cells: rat brain
# T3 sequence (P30553 1-452): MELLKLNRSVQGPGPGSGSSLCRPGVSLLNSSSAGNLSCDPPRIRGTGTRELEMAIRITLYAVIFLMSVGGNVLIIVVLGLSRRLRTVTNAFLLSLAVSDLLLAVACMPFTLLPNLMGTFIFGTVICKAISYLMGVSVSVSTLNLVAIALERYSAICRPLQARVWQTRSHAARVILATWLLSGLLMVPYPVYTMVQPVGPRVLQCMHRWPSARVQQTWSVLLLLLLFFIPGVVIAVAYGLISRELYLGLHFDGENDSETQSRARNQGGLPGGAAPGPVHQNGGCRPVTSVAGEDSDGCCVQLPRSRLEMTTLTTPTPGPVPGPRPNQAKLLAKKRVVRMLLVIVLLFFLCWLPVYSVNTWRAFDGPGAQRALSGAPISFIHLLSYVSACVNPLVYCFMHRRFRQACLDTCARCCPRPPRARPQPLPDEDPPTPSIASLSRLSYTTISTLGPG
# [4] = system: [^125 I] CCK-8 binding sites (CCK receptor), Guinea Pig Brain; test: Inhibition of [125I] CCK-8 binding, guinea pig brain; details: for Ratio Pancreas/Brain (Guinea Pig): value in brackets, IC50 pancreas / IC50 brain; for IC50: inhibition of [125I] CCK-8 binding, guinea pig brain
IC50 [1],IC50 [2],IC50 [3],Ratio Pancreas/Brain (Guinea Pig) [4],IC50 [4],Ratio Pancreas/Brain Rat [3],SMILES
1030 nM,958 nM,0.131 nM,4146,0.23 nM,"7,863","CCCC[C@@H](C(=O)N[C@@H](CC(=O)O)C(=O)N[C@@H](Cc1ccccc1)C(N)=O)N(C)C(=O)[C@H](Cc1c[nH]c2ccccc12)NC(=O)CNC(=O)[C@H](CCCC)N(C)C(=O)[C@H](Cc1ccc(O)cc1)NC(=O)[C@@H](N)CC(=O)O [Compound 2, H-Asp-Tyr-N-MeNle-Gly-Trp-N-MeNle-Asp-Phe-NH2]"
0.46 nM,,1.41 nM,,,0.29,"CCCC[C@@H](C(=O)N[C@@H](CC(=O)O)C(=O)N[C@@H](Cc1ccccc1)C(N)=O)N(C)C(=O)[C@H](Cc1c[nH]c2ccccc12)NC(=O)CNC(=O)[C@H](CCCC)N(C)C(=O)[C@H](Cc1ccc(OS(=O)(=O)O)cc1)NC(=O)[C@H](CC(=O)O)NS(=O)(=O)O [Compound 3, H-Asp-Tyr-N-MeNle-Gly-Trp-N-MeNle-Asp-Phe-NH2 Bis-SO3^θ] (X1-[sY][NMeNle]GW[NMeNle]DF-NH2; N-terminus assumed)"
46.7 nM,,1.45 nM,,,32.2,"CCCC[C@H](NC(=O)[C@H](Cc1c[nH]c2ccccc12)NC(=O)CNC(=O)[C@H](CCCC)N(C)C(=O)[C@H](Cc1ccc(O)cc1)NC(=O)[C@@H](N)CC(=O)O)C(=O)N[C@@H](CC(=O)O)C(=O)N[C@@H](Cc1ccccc1)C(N)=O [Compound 4, H-Asp-Tyr-N-MeNle-Gly-Trp-Nle-Asp-Phe-NH2]"
170 nM,,976 nM,,,0.17,"CCCC[C@H](NC(=O)[C@H](Cc1ccc(O)cc1)NC(=O)[C@@H](N)CC(=O)O)C(=O)NCC(=O)N[C@@H](Cc1c[nH]c2ccccc12)C(=O)N(C)[C@@H](CCCC)C(=O)N[C@@H](CC(=O)O)C(=O)N[C@@H](Cc1ccccc1)C(N)=O [Compound 5, H-Asp-Tyr-Nle-Gly-Trp-N-MeNle-AsP-Phe-NH2]"
10.6 nM,,0.318 nM,,,33.5,"CCCC[C@H](NC(=O)[C@H](Cc1c[nH]c2ccccc12)NC(=O)CNC(=O)[C@@H](NC(=O)[C@H](Cc1ccc(O)cc1)NC(=O)[C@@H](N)CC(=O)O)C(C)C)C(=O)N[C@@H](CC(=O)O)C(=O)N[C@@H](Cc1ccccc1)C(N)=O [Compound 6, H-Asp-Tyr-Val-Gly-Trp-Nle-Asp-Phe-NH2]"
521 nM,,1.26 nM,,,413,"CCCC[C@H](NC(=O)[C@H](Cc1c[nH]c2ccccc12)NC(=O)CNC(=O)[C@H](NC(=O)[C@H](Cc1ccc(O)cc1)NC(=O)[C@@H](N)CC(=O)O)C(C)C)C(=O)N[C@@H](CC(=O)O)C(=O)N[C@@H](Cc1ccccc1)C(N)=O [Compound 7, H-Asp-Tyr-D-Val-Gly-Trp-Nle-Asp-Phe-NH2]"
0.975 nM,,9.7 nM,,,0.0010,"CCCC[C@H](NC(=O)[C@H](Cc1ccc(O)c(O)c1)NC(=O)[C@@H](N)CC(=O)O)C(=O)NCC(=O)N[C@@H](Cc1c[nH]c2ccccc12)C(=O)N[C@@H](CCCC)C(=O)N[C@@H](CC(=O)O)C(=O)N[C@@H](Cc1ccccc1)C(N)=O [Compound 8, H-Asp-Dopa-Nle-Gly-Trp-Nle-Asp-Phe-NH2]"
,29100 nM,,9099,3.19 nM,,"CCCC[C@H](NC(=O)[C@H](Cc1c[nH]c2ccccc12)NC(=O)CNC(=O)[C@H](CCCC)N(C)C(=O)[C@H](Cc1ccc(OS(=O)(=O)O)cc1)NC(=O)[C@H](CC(=O)O)NS(=O)(=O)O)C(=O)N[C@@H](CC(=O)O)C(=O)N[C@@H](Cc1ccccc1)C(N)=O [Compound 9, H-Asp-Tyr-N-MeNle-Gly-Trp-Nle-Asp-Phe-NH2 Bis-SO3 θ] (X1-[sY][NMeNle]GW[Nle]DF-NH2; N-terminus assumed)"
1.39 nM,,0.496 nM,,,2.81,"CCCC[C@H](NC(=O)[C@H](Cc1ccc(OS(=O)(=O)O)cc1)NC(=O)[C@H](CC(=O)O)NS(=O)(=O)O)C(=O)NCC(=O)N[C@@H](Cc1c[nH]c2ccccc12)C(=O)N(C)[C@@H](CCCC)C(=O)N[C@@H](CC(=O)O)C(=O)N[C@@H](Cc1ccccc1)C(N)=O [Compound 10, H-Asp-Tyr-Nle-Gly-Trp-N-MeNle-Asp-Phe-NH2 -Bis-SO3θ] (X1-[sY][Nle]GW[NMeNle]DF-NH2; N-terminus assumed)"
,,,,,33.46,"CCCC[C@H](NC(=O)[C@H](Cc1c[nH]c2ccccc12)NC(=O)CNC(=O)[C@@H](NC(=O)[C@H](Cc1ccc(OS(=O)(=O)O)cc1)NC(=O)[C@H](CC(=O)O)NS(=O)(=O)O)C(C)C)C(=O)N[C@@H](CC(=O)O)C(=O)N[C@@H](Cc1ccccc1)C(N)=O [Compound 11, H-Asp-Tyr-Val-Gly-Trp-Nle-Asp-Phe-NH2 Bis-SO3 θ] (X1-[sY]VGW[Nle]DF-NH2; N-terminus and C-terminus assumed)"
,,,,,39.5,"CCCC[C@H](NC(=O)[C@H](Cc1c[nH]c2ccccc12)NC(=O)CNC(=O)[C@H](NC(=O)[C@H](Cc1ccc(OS(=O)(=O)O)cc1)NC(=O)[C@H](CC(=O)O)NS(=O)(=O)O)C(C)C)C(=O)N[C@@H](CC(=O)O)C(=O)N[C@@H](Cc1ccccc1)C(N)=O [Compound 12, H-Asp-Tyr-D-Val-Gly-Trp-Nle-Asp-Phe-NH2 Bis-SO3 θ] (X1-[sY][dV]GW[Nle]DF-NH2; N-terminus and C-terminus assumed)"

SMILES,IC50 [1],IC50 [2],IC50 [3],Ratio Pancreas/Brain (Guinea Pig) [4],IC50 [4],Ratio Pancreas/Brain Rat [3]
"CSCC[C@H](NC(=O)[C@H](Cc1ccc(OS(=O)(=O)O)cc1)NC(=O)[C@@H](N)CC(=O)O)C(=O)NCC(=O)N[C@@H](Cc1c[nH]c2ccccc12)C(=O)N[C@@H](CCSC)C(=O)N[C@@H](CC(=O)O)C(=O)N[C@@H](Cc1ccccc1)C(N)=O [CCK-8, Asp-Tyr-(SO3^-)-Met-Gly-Trp-Met-Asp-Phe-NH2, reference compound]",0.129 nM,,,,,
"CCCC[C@@H](C(=O)N[C@@H](CC(=O)O)C(=O)N[C@@H](Cc1ccccc1)C(N)=O)N(C)C(=O)[C@H](Cc1c[nH]c2ccccc12)NC(=O)CN [Compound 1, H-Gly-Trp-N-MeNle-Asp-Phe-NH2] (H-GW[NMeNle]DF-NH2)",> 10000 nM,8000 nM,4.67 nM,,,
